Positions count from the first letter of the chain named. In names and notes the source's numbering stands.

Broadly, the Kd is the free concentration of one partner at which half of the binding sites on the other are occupied at equilibrium, for simple one-to-one binding. Read a high Kd as weaker binding. In general, stoichiometry N refers to the number of molecules, sites or subunits per partner or assembly.

Data set [1] concerns the target T1, MFN2IM (Homo sapiens, UniProt O95140, T129I/DEL401-705).
T1 construct: gene MFN2; deletion of residues 1-21 and 401-705 (G domain + HD1); E. coli; N-terminal His6 cut by PreScission
T1 sequence (O95140 22-400 T129I): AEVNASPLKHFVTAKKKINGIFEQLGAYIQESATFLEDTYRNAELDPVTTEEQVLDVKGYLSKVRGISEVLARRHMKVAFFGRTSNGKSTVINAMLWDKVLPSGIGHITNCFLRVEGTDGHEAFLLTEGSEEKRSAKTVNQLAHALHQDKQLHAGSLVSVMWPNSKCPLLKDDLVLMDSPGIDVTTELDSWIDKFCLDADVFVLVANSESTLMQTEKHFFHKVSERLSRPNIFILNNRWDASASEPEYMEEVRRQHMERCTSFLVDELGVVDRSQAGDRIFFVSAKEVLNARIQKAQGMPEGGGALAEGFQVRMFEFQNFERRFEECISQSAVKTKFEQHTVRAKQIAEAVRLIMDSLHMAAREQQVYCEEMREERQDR
T1 sequence (O95140 706-757): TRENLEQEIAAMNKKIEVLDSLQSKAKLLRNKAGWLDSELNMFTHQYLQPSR
The data set is described as follows: stopped-flow fluorescence, displacement by unlabeled GDP. The format is binding. Particulars: labelled compound; pH 7.5, 150 mM KCl, 5 mM MgCl2.

Data set [2] deals with T2, MFN1IM (Homo sapiens, UniProt Q8IWA4, I108T/DEL365-694).
T2 construct: gene MFN1; internally truncated (residues 365-694 removed, G domain + HD1); E. coli; His6 cut by PreScission
T2 sequence (Q8IWA4 1-364 I108T): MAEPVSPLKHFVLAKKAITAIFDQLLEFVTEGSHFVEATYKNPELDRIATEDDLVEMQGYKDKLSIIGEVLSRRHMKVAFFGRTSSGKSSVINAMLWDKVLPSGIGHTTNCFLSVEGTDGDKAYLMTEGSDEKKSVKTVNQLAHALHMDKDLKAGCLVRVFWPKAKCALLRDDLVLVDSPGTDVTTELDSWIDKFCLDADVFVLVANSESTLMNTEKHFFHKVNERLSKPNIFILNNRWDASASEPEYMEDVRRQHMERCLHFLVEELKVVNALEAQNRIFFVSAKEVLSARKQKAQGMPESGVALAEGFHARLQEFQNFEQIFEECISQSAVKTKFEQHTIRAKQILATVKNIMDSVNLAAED
T2 sequence (Q8IWA4 695-741): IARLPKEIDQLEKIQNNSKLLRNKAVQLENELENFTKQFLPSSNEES
The description is as above. The format is binding. Particulars: labelled compound; pH 7.5, 150 mM KCl, 5 mM MgCl2.

Data set [3] concerns the target T3, MFN2IM (Homo sapiens, UniProt O95140, DEL401-705).
T3 construct: gene MFN2; deletion of residues 1-21 and 401-705 (G domain + HD1); E. coli; N-terminal His6 cut by PreScission
T3 sequence (O95140 22-400): T1 sequence (O95140 22-400 T129I) with I108T
T3 sequence (O95140 706-757): T1 sequence (O95140 706-757)
The data set is described as follows: ITC. The data set is classed as binding.

The target in data set [4] is T4, MFN1IM (Homo sapiens, UniProt Q8IWA4, DEL365-694).
T4 construct: gene MFN1; internally truncated (residues 365-694 removed, G domain + HD1); E. coli; His6 cut by PreScission
T4 sequence (Q8IWA4 1-364): T2 sequence (Q8IWA4 1-364 I108T) with T108I
T4 sequence (Q8IWA4 695-741): T2 sequence (Q8IWA4 695-741)
The data set is described as follows: ITC. The format is binding.

The target in a further data set is T5, mouse MFN1IM (mm) (Mus musculus, UniProt Q811U4).
T5 construct: gene Mfn1; internally truncated counterpart of human MFN1IM
T5 sequence (Q811U4 1-364 limits assumed): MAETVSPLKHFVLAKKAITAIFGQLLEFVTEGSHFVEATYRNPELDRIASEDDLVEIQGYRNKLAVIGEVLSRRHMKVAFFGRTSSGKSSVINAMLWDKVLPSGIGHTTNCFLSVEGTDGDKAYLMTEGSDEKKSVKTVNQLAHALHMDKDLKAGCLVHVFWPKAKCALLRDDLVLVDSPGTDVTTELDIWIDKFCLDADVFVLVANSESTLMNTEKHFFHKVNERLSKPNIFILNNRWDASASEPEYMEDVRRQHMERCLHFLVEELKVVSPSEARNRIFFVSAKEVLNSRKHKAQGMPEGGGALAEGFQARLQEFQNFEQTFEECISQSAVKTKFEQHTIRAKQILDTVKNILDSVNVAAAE
T5 sequence (Q811U4 695-741 limits assumed): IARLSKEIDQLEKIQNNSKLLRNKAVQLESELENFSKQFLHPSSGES
The data set can be described thus: GTP hydrolysis, HPLC. The format is biochemical. To be noted: 37 °C, pH 7.5, 150 mM KCl, 5 mM MgCl2.

The target of another data set is T6, mouse MFN2IM (mm) (Mus musculus, UniProt Q80U63).
T6 construct: gene Mfn2; internally truncated counterpart of human MFN2IM
T6 sequence (Q80U63 22-400 limits assumed): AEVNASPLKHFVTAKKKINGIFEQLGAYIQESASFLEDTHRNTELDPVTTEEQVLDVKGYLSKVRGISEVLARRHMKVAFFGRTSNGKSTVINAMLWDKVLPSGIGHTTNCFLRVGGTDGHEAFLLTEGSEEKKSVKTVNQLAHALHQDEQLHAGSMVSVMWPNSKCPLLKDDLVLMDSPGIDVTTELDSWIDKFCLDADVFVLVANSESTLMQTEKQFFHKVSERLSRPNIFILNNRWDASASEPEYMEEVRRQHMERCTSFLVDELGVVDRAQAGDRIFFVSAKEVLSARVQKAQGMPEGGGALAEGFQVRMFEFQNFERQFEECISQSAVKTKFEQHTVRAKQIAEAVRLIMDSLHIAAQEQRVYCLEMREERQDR
T6 sequence (Q80U63 706-757 limits assumed): T1 sequence (O95140 706-757) with E3D, I16V, V18A, K25R
The data set can be described thus: GTP hydrolysis, HPLC. The format is biochemical. To be noted: 37 °C, pH 7.5, 150 mM KCl, 5 mM MgCl2.

The target of data set [5] is T3, MFN2IM. The data set can be described thus: stopped-flow fluorescence, nucleotide exchange. The data set is classed as binding. To be noted: labelled compound; protein preincubated with GDP; pH 7.5, 150 mM KCl, 5 mM MgCl2.
Data set [6] has as its target T4, MFN1IM. The data set is described as follows: stopped-flow fluorescence, nucleotide exchange. The data set is classed as binding. To be noted: labelled compound; protein preincubated with GDP; pH 7.5, 150 mM KCl, 5 mM MgCl2.
Data set [7] concerns the molecule itself. The data set can be described thus: SEC-RALS; analytical gel filtration (Superdex 200 10/300) coupled to right-angle light scattering; 50 μM protein incubated with 500 μM GTP or GDP∙BeF3− for 2 h at room temperature; 20 mM HEPES pH 7.5, 150 mM KCl, 5 mM MgCl2, 1 mM DTT. (In general: In gel filtration, larger molecules generally elute earlier.)
For another data set, the target named is T7, MBP-fused MFN2IM (human, UniProt O95140 22-757, deletions of residues 1–21 and 401–705).
T7 construct: human mitofusin-2 (MFN2) with residues 1-21 and 401-705 deleted (MFN2IM); also called MBP-tagged MFN2IM; wild-type MFN2IM (native PAGE)
T7 sequence (looked up): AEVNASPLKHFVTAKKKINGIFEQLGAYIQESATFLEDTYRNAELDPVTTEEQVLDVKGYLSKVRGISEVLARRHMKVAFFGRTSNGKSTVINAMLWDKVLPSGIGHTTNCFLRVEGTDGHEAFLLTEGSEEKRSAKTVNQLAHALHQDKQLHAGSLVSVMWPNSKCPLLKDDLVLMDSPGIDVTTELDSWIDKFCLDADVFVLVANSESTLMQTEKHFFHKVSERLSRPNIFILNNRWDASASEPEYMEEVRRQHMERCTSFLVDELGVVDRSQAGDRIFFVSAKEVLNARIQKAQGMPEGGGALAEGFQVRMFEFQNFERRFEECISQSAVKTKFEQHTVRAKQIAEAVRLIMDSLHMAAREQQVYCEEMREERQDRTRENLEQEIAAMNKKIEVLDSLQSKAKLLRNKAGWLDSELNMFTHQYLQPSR
The data set can be described thus: native gel or EMSA; blue native PAGE at 4 °C; MBP-tagged MFN1IM/MFN2IM mixed with 10 μM partner and tenfold GDP∙BeF3−, 2 h at room temperature; Coomassie stain. To be noted: both partners purified. In general terms: In EMSA bound probe runs differently from free probe, usually more slowly.

Take `CNc1ccccc1C(=O)O[C@H]1[C@@H](O)[C@H](n2cnc3c(=O)[nH]c(N)nc32)O[C@@H]1COP(=O)(O)OP(=O)(O)O` [mant-GDP]: the GDP off-rate result on MFN2IM [1] is “GDP off-rates of MFN2IM(T129I) and MFN1IM(I108T)”; at MFN1IM [2], “GDP off-rates of MFN2IM(T129I) and MFN1IM(I108T)”. For the molecule `Nc1nc2c(ncn2[C@@H]2O[C@H](COP(=O)(O)OP(=O)(O)O)[C@@H](O)[C@H]2O)c(=O)[nH]1` [GDP], the Kd at MFN2IM [3] stood at 14.4 ± 0.63 µM; at MFN1IM [4], 217 ± 23.8 µM. Turning to `Nc1nc2c(ncn2[C@@H]2O[C@H](COP(=O)(O)OP(=O)(O)OP(O)(O)=S)[C@@H](O)[C@H]2O)c(=O)[nH]1` [GTPγS], the values for the Kd at MFN2IM [3] and on MFN1IM [4] were 3.3 ± 0.52 µM and 83 ± 5.34 µM, respectively.

Regarding `Nc1nc2c(ncn2[C@@H]2O[C@H](COP(=O)(O)OP(=O)(O)OP(=O)(O)O)[C@@H](O)[C@H]2O)c(=O)[nH]1` [GTP], the GTP turnover rate entry at mouse MFN1IM (mm) was “Mouse MFN1IM and MFN2IM showed weak GTPase hydrolysis”; at mouse MFN2IM (mm), “Mouse MFN1IM and MFN2IM showed weak GTPase hydrolysis”. Regarding `CNc1ccccc1C(=O)O[C@H]1[C@@H](O)[C@H](n2cnc3c(=O)[nH]c(N)nc32)O[C@@H]1COP(=O)(O)OP(=O)(O)OP(=O)(O)O` [mant-GTP], the “stopped-flow fluorescence, nucleotide exchange” value was “MFN2IM bound more mant-GTP over time due to a higher affinity to GTP” at MFN2IM [5]; “G domain dimerization greatly reduced the mant-GTP reload rate of both MFN2IM and MFN1IM” on MFN1IM [6].

B1: MFN2IM (modified human MFN2 construct with deletions of residues 1–21 and 401–705) (domain or fragment, UniProt O95140 22-757, looked up)
chain: T7 sequence (looked up)
notes: human mitofusin-2 (MFN2) with residues 1-21 and 401-705 deleted (MFN2IM); Theoretical molecular mass 52.6 kDa; also called truncated human MFN2; wild-type MFN2IM; source: E. coli Rosetta (DE3), purified (Ni-NTA, His6-tag removed with PreScission protease, second Ni-NTA, gel filtration); not shown: His6, N-terminal, cleaved
As for B1, the “stoichiometry N” value in data set [7] was determined as 2.

B2: MFN2IM R94Q (CMT2A-related mutant) (domain or fragment, human, UniProt O95140 22-757, looked up)
chain: T7 sequence (looked up) with R73Q
notes: human mitofusin-2 (MFN2) with residues 1-21 and 401-705 deleted (MFN2IM), CMT2A-related point mutant; source: E. coli Rosetta (DE3), purified; not shown: His6, N-terminal, cleaved
With B2, the binding result in data set [7] is “binds”.

B3: MFN2IM P251L (CMT2A-related mutant) (domain or fragment, human, UniProt O95140 22-757, looked up)
chain: T7 sequence (looked up) with P230L
notes: as for B2
In the case of B3, the binding result in data set [7] was “binds”.

B4: MFN2IM R364P (CMT2A-related mutant) (domain or fragment, human, UniProt O95140 22-757, looked up)
chain: T7 sequence (looked up) with R343P
notes: as for B2
As for B4, the binding result in [7] is on record as “binds”.

B5: MFN2IM R364W (CMT2A-related mutant) (domain or fragment, human, UniProt O95140 22-757, looked up)
chain: T7 sequence (looked up) with R343W
notes: as for B2
For B5, in data set [7], the binding result is on record as “binds”.

B6: MFN2IM L248V (CMT2A-related mutant) (domain or fragment, human, UniProt O95140 22-757, looked up)
chain: T7 sequence (looked up) with L227V
notes: as for B2
In the case of B6, the binding result in data set [7] is given as “binds”.

B7: MFN2IM R94W (CMT2A-related mutant) (domain or fragment, human, UniProt O95140 22-757, looked up)
chain: T7 sequence (looked up) with R73W
notes: as for B2
For the molecule B7, the binding result in the data set with MBP-fused MFN2IM is recorded as “binds”.

For the origin of these results see paper PMC6820788, “Structural insights of human mitofusin-2 into mitochondrial fusion and CMT2A onset” (Nature Communications, 2019).
